From patent US5968751A, “Method for detecting the presence of protein C antibody in a fluid sample” (The Scripps Research Institute, priority 1997, dated 1999) come the findings set out here.

No end group written: not given here.

This test concerns the target APC (Homo sapiens, UniProt P04070). In words: inhibition of APC by recombinant mutant (Arg358)-α1-antitrypsin, time course. Format: biochemical. Set-up: Protein C consists of a 155 amino acid residue light chain and a 262 amino acid residue heavy chain; from tissue; alpha1-AT mutant from Transgene, Strasbourg. To be noted: 250 μM PC311-325, 500 μM PC142-155; 18 nM APC, 100 nM α1-AT. As for the experimental part: Kinetic studies of inhibition of APC were performed with the higher affinity mutant α1 -AT pseudo-substrate. For the assay, 60 μl of 36 nM APC and/or 60 μl of 200 nM recombinant (Arg^358)-α1 -AT prepared in TBS-BSA at pH 7.4 containing 0.02% NaN3 and 2 mM CaCl2 were separately admixed with 500 μM PC311-325 or 1 mM PC142-155 and maintained for 30 minutes at 37° C. to form APC-peptide and/or α1 -AT-peptide admixtures for each peptide tested, respectively. Thereafter, the peptide-treated APC and α1 -AT admixtures were combined to form a reaction admixture. At selected time points, 8 μl aliquots from the reaction admixture were removed and admixed with 300 μl 0.8 mM S-2366 in TBS-BSA at pH 8.0 containing 0.02% NaN3 to initiate the hydrolysis of S-2366 by APC. The change in absorbance was measured over time as described in the amidolytic assay. […]
Since the number of amino acid residues involved in neutralization of APC by macromolecular plasma protease inhibitors is likely to be higher than the number of residues of APC involved in the cleavage of a small chromogenic substrate such as S-2366, the effect of anti-PC317-331 antibody on the time course of inhibition of APC by a larger pseudo-substrate, such as recombinant mutant (Arg^358)-α1 -AT was evaluated. […] The change in absorbance was measured over time as described in the amidolytic assay. […]

APC, sequence (P04070 43-197): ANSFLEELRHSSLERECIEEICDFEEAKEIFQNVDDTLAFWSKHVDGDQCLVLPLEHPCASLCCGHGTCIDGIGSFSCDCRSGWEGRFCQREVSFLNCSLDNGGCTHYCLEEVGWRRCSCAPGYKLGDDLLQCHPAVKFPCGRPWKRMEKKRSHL
APC, sequence (P04070 212-461): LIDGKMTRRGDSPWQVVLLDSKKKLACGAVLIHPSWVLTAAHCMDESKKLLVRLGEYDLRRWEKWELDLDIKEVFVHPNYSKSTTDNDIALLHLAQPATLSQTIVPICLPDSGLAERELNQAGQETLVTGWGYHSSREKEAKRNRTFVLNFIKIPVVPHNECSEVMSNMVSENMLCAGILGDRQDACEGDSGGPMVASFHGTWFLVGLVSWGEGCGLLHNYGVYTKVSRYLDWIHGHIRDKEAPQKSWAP

Turning to “KRNRTFVLNFIKIPV-NH2 [PC311-325, Lys-Arg-Asn-Arg-Thr-Phe-Val-Leu-Asn-Phe-Ile-Lys-Ile-Pro-Val]”, the “effect on the time course of inhibition of APC by recombinant (Arg358)α1-AT” value is “did not have any significant effect”.
